Earlier results as cited in patent publication US20110201657A1, “AMIDE SUBSTITUTED INDAZOLE AND BENZOTRIAZOLE DERIVATIVES AS POLY(ADP-RIBOSE)POLYMERASE (PARP) INHIBITORS” (Istituto di Ricerche di Biologia Molecolare P. Angeletti SpA, priority 2006, published 2011).

Test system: infarct size in the heart
Conditions: rabbits

| Compound | reduction in infarct size in the heart (single injection 10 mg/kg, one minute before occlusion or before reperfusion) | reduction in infarct size (single injection 1 mg/kg) |
| --- | --- | --- |
| NC(=O)c1cccc(N)c1 [3-amino-benzamide] | 32-42% | – |
| Oc1cccc2c(O)nccc12 [1,5-dihydroxyisoquinoline] | – | 38-48% |
